The text below walks through data of patent publication US20150265554A1, “Treatment of MeCP-2 Associated Disorders” (UNIVERSITÉ D'AIX-MARSEILLE, priority 2010, published 2015).

Assay [1] deals with Mecp2-deficient mice. Kind of assay: Lifespan (survival) study, oral cysteamine in drinking water. The assay is classed as in vivo, mouse. The conditions noted are these: cysteamine in drinking water 225 mg/kg/day from P30, mean±SEM, n=17, p<0.05 vs vehicle (65±2.2 days), Kaplan-Meir log-rank test. As for the experimental part: Experiments were performed on Sprague dawley rats and B6.129P2(C)- MeCP2 tm1-1 Bird mouse model for RTT (Guy, J., Hendrich, B., Holmes, M., Martin, J. E., Bird, A. (2001) A mouse Mecp2-null mutation causes neurological symptoms that mimic Rett syndrome. Nat. Genet. 27, 322-326). The mice were obtained from the Jackson Laboratory and maintained on a C57BL/6 background. The rats were obtained from Charles River Laboratories, France. The experimental procedures were carried out in keeping with the European guidelines for the care and use of laboratory animals (Council Directive […]). For the mouse experiments, hemizygous mutant males (MeCP2^-/y) were generated by crossing heterozygous knockout females to C57BL/6 males. […]
From P30, animals received a cysteamine treatment in their drinking water (225 mg/kg/day) (Sigma-Aldrich; St-Quentin, France). […] Open-field activity was measured in an arena made of clear perspex (38×30 cm). The test session lasted 15 min with data recorded using the Ethovision 2.3.19 tracking system (Noldus Information Technology). Velocity (cm/s) and total distance moved (cm) were recorded. […]

The test system of assay [2] is Mecp2-deficient mice. Nature of the assay: Open-field activity (total distance moved, velocity). It counts as in vivo, mouse. As for the experimental part:
Experiments were performed on Sprague dawley rats and B6.129P2(C)- MeCP2 tm1-1 Bird mouse model for RTT (Guy, J., Hendrich, B., Holmes, M., Martin, J. E., Bird, A. (2001) A mouse Mecp2-null mutation causes neurological symptoms that mimic Rett syndrome. Nat. Genet. 27, 322-326). The mice were obtained from the Jackson Laboratory and maintained on a C57BL/6 background. The rats were obtained from Charles River Laboratories, France. The experimental procedures were carried out in keeping with the European guidelines for the care and use of laboratory animals (Council Directive […]). For the mouse experiments, hemizygous mutant males (MeCP2^-/y) were generated by crossing heterozygous knockout females to C57BL/6 males. Genotyping was performed by routine PCR technique according to Jackson Laboratory protocols and as previously described (Viemari, J. C., Roux, J. C., Tryba, A. K., Saywell, V., Burnet, H., Peña, F., Zanella, S., Bévengut, M., Barthelemy-Requin, M., Herzing, L. B., Moncla, A., Mancini, J., Ramirez, J. M., Villard, L., Hilaire, G. (2005) Mecp2 deficiency disrupts norepinephrine and respiratory systems in mice. J. Neurosci. 25, 11521-11530).
From P30, animals received a cysteamine treatment in their drinking water (225 mg/kg/day) (Sigma-Aldrich; St-Quentin, France). Every 2 days, mice were weighted, cysteamine solution renewed and treatment consumption checked. […] Seventy-nine Mecp2 deficient mice were studied (lifespan study, n=17 cysteamine-treated and n=42 untreated; motor evaluation n=10 cysteamine-treated and n=10 untreated). The mice were assigned to each experimental group by an investigator who was blind to their genotype. Open-field activity was measured in an arena made of clear perspex (38×30 cm). The test session lasted 15 min with data recorded using the Ethovision 2.3.19 tracking system (Noldus Information Technology). Velocity (cm/s) and total distance moved (cm) were recorded. Velocity calculations on Ethovision were obtained using an input filter setting the minimal distance moved (0.6 cm) so that ambulations shorter than this value were never taken into account.

Turning to `NCCS` [cysteamine], the life span in the assay with Mecp2-deficient mice [1] turned out to be 74.8 ± 5.2 days. Moreover, in the assay with Mecp2-deficient mice [2] (Mecp2-deficient mice, chronic oral cysteamine vs placebo group, especially in the later stages), the “locomotion in open field arena (total distance moved and velocity)” value is “significantly improved locomotion”. Moreover, in the assay on Mecp2-deficient mice [2] (Mecp2-deficient mice, oral cysteamine vs vehicle, from P65, p<0.05, n=10 per group), the “mouse velocity in open field” value is recorded as “significantly increased”. For the same molecule, the “total distance traveled in the open field arena during the 15-minute session” value in the assay with Mecp2-deficient mice [2] (Mecp2-deficient mice, oral cysteamine vs vehicle, from P75, n=10 per group) is “statistically increased”. Further, the “total distance, difference between cysteamine treated and placebo group” value is on record as “+3%” in the assay on Mecp2-deficient mice [2] (P55, open field 15 min); “+40%” in the assay on Mecp2-deficient mice [2] (P65, open field 15 min); “+128%” with Mecp2-deficient mice [2] (P75, open field 15 min); “+485%” in the assay on Mecp2-deficient mice [2] (P85, open field 15 min). The “velocity, difference between cysteamine treated and placebo group” value in the assay on Mecp2-deficient mice [2] (P55, open field 15 min) was “+18%”; with Mecp2-deficient mice [2] (P65, open field 15 min) it was “+33%”; in the assay on Mecp2-deficient mice [2] (P75, open field 15 min) it was “+65%”; with Mecp2-deficient mice [2] (P85, open field 15 min), “+74%”.
